According to doi:10.1101/2020.02.20.957365v1, “Tree bark scrape fungus: A potential source of laccase for application in bioremediation of non-textile dyes” (biorxiv, 2020):

System: T1, laccase of Aspergillus sp. HB_RZ4
T1 construct: native extracellular enzyme purified from culture supernatant (ammonium sulfate, DEAE-cellulose, Sephadex G-100); about 62 kDa by SDS-PAGE
Experiment: ABTS oxidation at […] nm, Michaelis-Menten and Lineweaver-Burk
Format: biochemical
Details: apparent Km; ABTS 10-200 mM; assay buffer 100 mM sodium acetate pH 4.0; free enzyme

## CCn1c(=NN=c2sc3cc(S(=O)(=O)O)ccc3n2CC)sc2cc(S(=O)(=O)O)ccc21 [ABTS, 2,2’-azino-bis (3-ethylbenzothiazoline 6-sulphonic acid)]
  Km: 26.8 mM
